The text below walks through data of patent publication US20040156802A1, “Cosmetics or external preparations for skin” (priority 2001, published 2004).

For data set [1], the system named is rabbits (New Zealand White species, male). Nature of the data set: Test on the primary irritation of the skin. Conditions: for Evaluation Value For irritation: alone, shaved rabbit back, blocked 24 hours; for effect on the primary irritation of the skin when used in combination with the irritant: in comparison with the irritant used singly, rabbit. It is filed as in vivo, rabbit. How it is done: Each back portion of rabbits (New Zealand White species, male) was shaved and each of the test compounds was applied thereto. Each of the test compound-applied portions was blocked for 24 hours, After 24, 48, 72 and 168 hours from the time of applying the test compound, the judgments were conducted for the erythema and edema appeared on the test compound-applied portion based on their standards indicated in table 1. The average evaluation value in each time at which the judgment was conducted was calculated (the value obtained by dividing the combined value of the evaluation value for erythema and that for edema by the number of animal used in the test). In addition, the average evaluation value in each time at which the judgment was conducted was all added up and the total value was divided by the number of judgment (4 times) to make the evaluation value of the primary initation.

Data set [2] concerns adult men. Nature of the data set: Test in human on function of inhibiting the irritation induced by an organic acid (solution B applied 4 minutes before glycolic acid solution A). It is filed as in vivo. Conditions: glycolic acid concentration: 20%. Here is the method:
A series of tests were conducted by three adult men with respect to the function of inhibiting the irritation of the skin induced an organic acid. […] After all of the panelists washed their faces, solution B (or solution C) was applied to each right cheek (or each left cheek) of the their faces with a cotton bud. […] The irritation which each of the panelists felt at the solution-applied portion was recorded as the score every a minute after a minute from the time of applying the solution for 5 minutes based on its evaluation standards shown below. In addition, the function of the test compound (N, N′-diacetyl-L-cystine dimethyl ester) for inhibiting the irritation was judged based on the judging standards shown below.

Data set [3] relates to adult men. Nature of the data set: Test in human on function of inhibiting the irritation induced by an organic acid (test solution applied 3 minutes before glycolic acid). The format is in vivo. To be noted: glycolic acid concentration: 10%. Here is the method: A series of tests were conducted by four adult men with respect to the function of inhibiting the irritation of the skin induced an organic acid. There were prepared a solution of glycolic acid dissolved in a 25% aqueous ethanol solution (the concentration of glycolic acid: 10%) and a test solution of N, N′-diacetyl-L-cystine dimethyl ester dissolved in the same solvents (the concentration of N, N′-diacetyl-L-cystine dimethyl ester: 10%). A solution of only the solvent was separately prepared as the control solution. After all of the panelists washed their faces, either test solution or control solution was applied to each right cheek of the their faces with a cotton bud. After additional 3 minutes, the glycolic acid solution was applied to the same portion as in the above and the irritation which each of the panelists felt was recorded as the score every a minute after a minute from the time of applying the glycolic acid solution for 10 minutes based on its evaluation standards shown below. […] After additional 3 minutes, the glycolic acid solution was applied to the same portion and the irritation which each of the panelists felt at the applied portion was similarly recorded as the score every a minute after a minute from the time of applying the glycolic acid solution for 10 minutes. […]

The subject of the next data set is an adult. Nature of the data set: Test in human on function of inhibiting erythema and irritation (tape-stripped forearm, protopic ointment). To be noted: skin where the barrier function was reduced by tape stripping (30 times). The format is in vivo. How it is done: A series of tests were conducted by an adult With respect to the function of inhibiting the skin erythema and irritation induced by an organic acid. A test solution of N, N′-diacetyl-L-cystine dimethyl ester dissolved in a 25% aqueous ethanol solution (the concentration of N, N′-diacetyl-L-cystine dimethyl ester; 10%) was prepared. A solution of only the solvents was separately prepared as control solution. 30 Times of tape stripping were conducted on the inward portion of the panelist's forearm. To the portion which the tape stripping procedures have been conducted was applied {circle over (2)} test solution (or control solution) in addition to {circle over (1)} control (any solvent is not applied). After 4 minutes, to each of the portions ({circle over (1)} control portion (both forearms) {circle over (2)} test solution-applied portion and {circle over (3)} control solution-applied portion) was applied protopic ointment (tacrolimus: 1 mg/g), and the erytherma and irritation appeared on each of the portions after an additional 5 minutes were evaluated. […] In the skin where the barrier function of the skin was reduced by tape stripping (30 times), erytherma and irritation caused by the protopic ointment were suppressed by N, N′-diacetyl-L-cystine dimethyl ester.

Where [4] appears, read: concentration 3%, erythema + edema averaged over 24, 48, 72 and 168 hours.

Where “and” joins values, the source holds several entries; their conditions need not be identical. Equal entries are not always repeated.

On to `CC(O)C(=O)O` (stereo not drawn) [Lactic acid], for which the “Evaluation Value For irritation” value in data set [1] (concentration 70%, erythema + edema averaged over 24, 48, 72 and 168 hours) came out at 1.4. Turning to `CCCCCCCCCCCCCCCCCC[N+](C)(C)C.[Cl-]` [Stearyl trimethyl ammonium chloride], in data set [1] (setting [4]), the “Evaluation Value For irritation” value was determined as 3.7. On to `CCCCCCCC(=O)N[C@@H](CSSC[C@H](NC(=O)CCCCCCC)C(=O)OC)C(=O)OC` [N,N′-dioctanoyl-L-cystine dimethyl ester], for which the “effect on the primary irritation of the skin when used in combination with the irritant” value in data set [1] is recorded as “mitigates the primary irritation of the skin”.

As for Benzalkonium chloride, the “Evaluation Value For irritation” value in data set [1] (setting [4]) was found to be 5.3.

Take `COC(=O)[C@H](CSSC[C@H](NC(C)=O)C(=O)OC)NC(C)=O` [N,N′-diacetyl-L-cystine dimethyl ester]: the “inhibitory function in human toward irritation caused by glycolic acid” value in the data set with adult men [2] and in the data set with adult men [3] was “exhibited inhibitory function” each time. The “erythema and irritation caused by the protopic ointment” value in the data set with an adult is given as “suppressed”. In data set [1], the “effect on the primary irritation of the skin when used in combination with the irritant” value was “mitigates the primary irritation of the skin”. `CCCCCCCCCCCCOS(=O)(=O)[O-].[Na+]` [Sodium lauryl sulfate]: the “Evaluation Value For irritation” value in data set [1] (concentration 5%, erythema + edema (each 0-4) averaged over judgments at 24, 48, 72 and 168 hours, sulfate) was 6.6 and 6.4.
